From patent US20200046654A1, “BUPROPION AND PHARMACEUTICAL COMPOSITION FOR TREATING CANCER AND METHOD FOR INHIBITING MIGRATION OF TUMOR CELLS” (NATIONAL CHIAO TUNG UNIVERSITY, priority 2018, published 2020)

Columns and labels:
[1] = test system: MDA-MB-231 cells; test: cell invasion assay (Matrigel invasion chambers); assay type: cell-based, human; details: 48 hours, with or without nicotine
Description: The inhibitory effect of bupropion on tumor invasion was tested by cell invasion assay. MDA-MB-231 cells were plated on to Matrigel invasion chambers in serum-starved medium, and the cells in the lower chamber were cultured using normal medium. The media in both of the upper and the lower chambers contained 0.1 μM bupropion, or 1 μM bupropion, and the cells were treated with or without (control group) nicotine. After the cells were cultured for 48 hours, the upper chambers were washed with PBS and fixed with formaldehyde for 30 minutes. The cells in the upper chambers were stained with crystal violet for two hours, and photos were acquired under a microscope. The numbers of invading tumor cells were calculated by ImageJ software.

[2] = test system: MDA-MB-231 cells; test: cell migration assay, MDA-MB-231; assay type: cell-based, human; details: 12 hours, with or without nicotine
Description: (§1) MDA-MB-231 cells well treated with or without (control group) nicotine, DMSO, 0.1 μM, and 1 μM bupropion were then respectively added to the cells. Twelve hours after bupropion addition, the cells were fixed with formaldehyde, and stained with PI for 30 minutes; then photos of the cells were acquired. The numbers of migrating cells were calculated by imageJ software. This assay was repeated 3 times.

[3] = test system: MDA-MB-231 cells with a luminescence reporter gene; test: MDA-MB-231-based spontaneous pulmonary metastasis animal model; assay type: in vivo, SCID mice; details: two months; for number of the migrating tumor cells to the lungs (photon flux): bupropion i.p. three times a week, 100 or 200 μg per kilogram
Description: MDA-MB-231 cells with a luminescence reporter gene were implanted into severe combined immunodeficiency (SCID) mice. The nicotine treatment was carried out by adding nicotine (10 μg/ml) to the drinking water of the mice. The mice were injected intraperitoneally with bupropion three times a week at doses of 100 or 200 μg per kilogram. After two months, the mice were sacrificed and the lungs were dissected. IVIS was used to take the luminescence images of the lungs. The photon influx measured in the images represents the metastasis level of the mouse tumor cells to the lung tissue.

[4] = test system: MDA-MB-453; test: cell migration assay, MDA-MB-453; assay type: cell-based, human
Description: as §1
In addition, a HER2 overexpression subtype of a breast cancer cell line, MDA-MB-453, was used to test the inhibitory effect of bupropion on tumor migration. The experimental method was the same as the cell migration assay of Example 7 above.

[5] = molecular target: CHRNA9/CFP and ERBB2/YFP (Homo sapiens, UniProt Q9UGM1)
CHRNA9/CFP and ERBB2/YFP, sequence (Q9UGM1 23-479): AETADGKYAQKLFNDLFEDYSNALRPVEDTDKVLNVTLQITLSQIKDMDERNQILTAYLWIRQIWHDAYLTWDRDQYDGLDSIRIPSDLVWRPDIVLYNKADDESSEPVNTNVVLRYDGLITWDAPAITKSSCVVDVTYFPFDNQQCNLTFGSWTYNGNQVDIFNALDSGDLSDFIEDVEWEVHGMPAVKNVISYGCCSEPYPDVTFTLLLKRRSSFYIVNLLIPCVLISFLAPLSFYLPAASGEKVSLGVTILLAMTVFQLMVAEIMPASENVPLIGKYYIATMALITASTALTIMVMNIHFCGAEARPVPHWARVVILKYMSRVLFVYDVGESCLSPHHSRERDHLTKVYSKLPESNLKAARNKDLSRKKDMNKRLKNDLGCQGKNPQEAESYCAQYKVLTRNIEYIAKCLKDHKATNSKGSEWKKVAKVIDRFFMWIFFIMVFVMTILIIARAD
Description: In order to further investigate the interaction between CHRNA9 and ERBB2 ex vivo, a plasmid expressing CHRNA9/CFP and a plasmid expressing ERBB2/YFP were constructed and then co-transfected into MDA-MB-231 cells. FRET and fluorescence-lifetime imaging microscopy (FLIM) were used.
To further clarify whether CHRNA9 and ERBB2 are dissociated after nicotine exposure, two-photon FLIM was used to monitor the FRET activity between CHRNA9/CFP and ERBB2/YFP. The plasmids expressing CHRNA9/CFP and the plasmids expressing ERBB2/YFP were co-transfected into MDA-MB-231 cells. After two days, the cells were treated with 10 μM nicotine.

[6] = molecular target: CHRNA9/ERBB2 complex (Homo sapiens, UniProt Q9UGM1); details: oral nicotine, at 30 minutes of exposure, vs before exposure
CHRNA9/ERBB2 complex, sequence (Q9UGM1 23-479, one chain of several): as the sequence (Q9UGM1 23-479) above
Description: Split luciferase complementation assay was used to investigate the association and dissociation between CHRNA9 and ERBB2.
The N terminal (Nluc) and the C terminal (Cluc) of luciferase were respectively constructed with ERBB2 and CHRNA9 to form the plasmids expressing the fusion proteins. When ERBB2 and CHRNA9 interact with each other, the Nluc and the Cluc are also close to each other to assemble together, and present luciferase activity. Therefore, after Luciferin addition, luminescence can be generated. When ERBB2 and CHRNA9 dissociate from each other, the Nluc and Cluc also dissociate from each other; therefore, no luciferase activity exists.
Then a xenograft animal model was used. Plasmids expressing ERBB2/Nluc fusion protein and plasmids expressing CHRNA9/Cluc fusion protein were co-transfected into MDA-MB-231 cells, then the cells expressing the fusion proteins were injected into the mammary pads of nude mice.

SMILES | invasion of MDA-MB-231 cells ([1]; 0.1 μM bupropion) | invasion of MDA-MB-231 cells ([1]; 1 μM bupropion) | migration of MDA-MB-231 cells ([2]; 0.1 μM bupropion) | migration of MDA-MB-231 cells ([2]; 1 μM bupropion) | number of the migrating tumor cells to the lungs (photon flux) ([3]; nicotine-free mice) | number of the migrating tumor cells to the lungs (photon flux) ([3]; nicotine-treated mice) | migration of MDA-MB-453 cells ([4]; 0.1 μM bupropion) | migration of MDA-MB-453 cells ([4]; 1 μM bupropion) | FRET activity on the cell membrane between CHRNA9/CFP and ERBB2/YFP ([5]; after 10 μM nicotine exposure, MDA-MB-231 cells) | FRET activity on the membrane after removal of nicotine ([5]; cells washed with PBS to remove nicotine) | number of the metastatic tumor cells in the lung tissues (photon flux) ([3]; nicotine 10 μg/ml in drinking water) | photon influx (luciferase activity in tumor region) relative to control group [6]
CC(NC(C)(C)C)C(=O)c1cccc(Cl)c1 (stereo not drawn) [bupropion] | significantly inhibited | significantly inhibited | significantly inhibited | significantly inhibited | significantly decreased | significantly decreased | significantly inhibited | significantly inhibited |  |  |  | 
CN1CCCC1c1cccnc1 (stereo not drawn) [nicotine] |  |  |  |  |  |  |  |  | gradually decreased | gradually recovered to the baseline | significantly increased | 26.3%
